Measurements taken from patent publication US5552402A, “Five-membered heteroaromatic compounds as 5-HT receptor agonists” (Merck, Sharp & Dohme Ltd., priority 1994, dated 1996).
Counter-ions that a name gives are not always drawn.

Molecular target: T1, 5-HT1 -like receptor (Oryctolagus cuniculus, UniProt P49144)
T1 construct: contraction of the saphenous vein of New Zealand White rabbits; from tissue; host or cells: saphenous vein of New Zealand White rabbits
Experiment: Agonist activity at 5-HT1-like receptor: contraction of the saphenous vein of New Zealand White rabbits
Conditions: rabbit saphenous vein; from plots of percentage 5-HT (1 μM) response against concentration of agonist; read-out: EC50 (agonist potency, contraction of saphenous vein)
Procedure: The activity of test compounds as agonists of the 5-HT1 -like receptor was measured in terms of their ability to mediate contraction of the saphenous vein of New Zealand White rabbits, using the procedure described in Arch. Pharm., 1990, 342, 111. Agonist potencies were calculated as EC50 values, from plots of percentage 5-HT (1 μM) response against the concentration of the agonist.

T1 sequence (P49144 whole entry): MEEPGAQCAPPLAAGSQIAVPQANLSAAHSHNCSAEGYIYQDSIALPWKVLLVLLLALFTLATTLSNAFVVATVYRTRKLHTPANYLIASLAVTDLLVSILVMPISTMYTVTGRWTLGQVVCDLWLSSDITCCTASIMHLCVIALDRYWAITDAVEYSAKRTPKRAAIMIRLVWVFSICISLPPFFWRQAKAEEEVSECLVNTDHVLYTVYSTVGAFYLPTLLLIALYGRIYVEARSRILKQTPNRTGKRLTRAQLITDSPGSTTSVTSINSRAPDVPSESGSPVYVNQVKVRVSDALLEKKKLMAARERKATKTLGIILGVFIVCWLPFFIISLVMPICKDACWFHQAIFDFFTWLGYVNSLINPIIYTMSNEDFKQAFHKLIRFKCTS

EC50 [µM]	Structure (SMILES)
< 5	c1cc2[nH]cc(CCCN3CCNCC3)c2cc1-n1cnnc1 [Example 4, 1-(3-[5-(1,2,4-Triazol-4-yl)-1H-indol-3-yl]propyl)-4-(H)-piperazine. 3.5 Hydrogen Oxalate]
< 5	CN1CCN(CCCc2c[nH]c3ccc(-n4cnnc4)cc23)CC1 [Example 5, 1-(3-[5-(1,2,4-Triazol-4-yl)-1H-indol-3-yl]propyl)-4-(methyl)piperazine. 3.5 Hydrogen Oxalate Monohydrate]
